ChEMBL document CHEMBL5390253, “Discovery of Selective and Potent Macrocyclic CDK9 Inhibitors for the Treatment of Osimertinib-Resistant Non-Small-Cell Lung Cancer” (J Med Chem, 2023)
Active and inactive are the calls of the source. The calls are words filed in the database; no cut-off is given here.

Columns and labels:
[1] = target: Receptor-type tyrosine-protein kinase FLT3 (Homo sapiens) (UniProt P36888); test: Inhibition of FLT3 (unknown origin) at 100 nM preincubated for 10 mins followed by substrate addition and measured after 60 mins in presence of ATP by ADP-Glo reagent based assay relative to control; conditions: time 70.0 min
Chain of Receptor-type tyrosine-protein kinase FLT3 (Homo sapiens) (P36888 whole entry): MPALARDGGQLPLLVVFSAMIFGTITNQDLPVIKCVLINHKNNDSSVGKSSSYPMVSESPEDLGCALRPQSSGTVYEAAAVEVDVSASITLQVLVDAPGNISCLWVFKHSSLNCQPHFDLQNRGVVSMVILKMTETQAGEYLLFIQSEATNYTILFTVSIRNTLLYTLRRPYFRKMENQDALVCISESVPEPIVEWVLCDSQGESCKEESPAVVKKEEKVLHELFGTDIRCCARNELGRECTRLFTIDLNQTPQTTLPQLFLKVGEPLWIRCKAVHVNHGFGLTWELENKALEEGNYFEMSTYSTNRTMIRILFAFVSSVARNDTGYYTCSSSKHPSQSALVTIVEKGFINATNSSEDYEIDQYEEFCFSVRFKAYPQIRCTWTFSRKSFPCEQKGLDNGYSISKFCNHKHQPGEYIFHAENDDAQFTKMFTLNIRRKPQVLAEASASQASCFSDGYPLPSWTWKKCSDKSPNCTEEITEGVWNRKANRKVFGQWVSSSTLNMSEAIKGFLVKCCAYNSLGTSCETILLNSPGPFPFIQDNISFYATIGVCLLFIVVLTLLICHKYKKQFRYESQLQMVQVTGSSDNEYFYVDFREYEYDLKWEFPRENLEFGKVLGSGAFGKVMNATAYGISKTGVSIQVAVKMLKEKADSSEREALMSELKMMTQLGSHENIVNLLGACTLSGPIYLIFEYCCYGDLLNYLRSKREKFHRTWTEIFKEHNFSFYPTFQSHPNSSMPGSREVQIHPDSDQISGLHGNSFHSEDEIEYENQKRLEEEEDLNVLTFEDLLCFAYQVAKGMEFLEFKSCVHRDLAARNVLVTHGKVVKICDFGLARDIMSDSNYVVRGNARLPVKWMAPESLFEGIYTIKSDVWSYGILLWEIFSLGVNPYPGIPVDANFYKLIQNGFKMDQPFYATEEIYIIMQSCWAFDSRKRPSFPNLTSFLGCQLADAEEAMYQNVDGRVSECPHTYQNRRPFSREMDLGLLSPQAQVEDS

[2] = target: Tyrosine-protein kinase JAK2 (Homo sapiens) (UniProt O60674); test: Inhibition of JAK2 (unknown origin) at 100 nM preincubated for 10 mins followed by substrate addition and measured after 60 mins in presence of ATP by ADP-Glo reagent based assay relative to control; conditions: time 70.0 min
Chain of Tyrosine-protein kinase JAK2 (Homo sapiens) (O60674 whole entry): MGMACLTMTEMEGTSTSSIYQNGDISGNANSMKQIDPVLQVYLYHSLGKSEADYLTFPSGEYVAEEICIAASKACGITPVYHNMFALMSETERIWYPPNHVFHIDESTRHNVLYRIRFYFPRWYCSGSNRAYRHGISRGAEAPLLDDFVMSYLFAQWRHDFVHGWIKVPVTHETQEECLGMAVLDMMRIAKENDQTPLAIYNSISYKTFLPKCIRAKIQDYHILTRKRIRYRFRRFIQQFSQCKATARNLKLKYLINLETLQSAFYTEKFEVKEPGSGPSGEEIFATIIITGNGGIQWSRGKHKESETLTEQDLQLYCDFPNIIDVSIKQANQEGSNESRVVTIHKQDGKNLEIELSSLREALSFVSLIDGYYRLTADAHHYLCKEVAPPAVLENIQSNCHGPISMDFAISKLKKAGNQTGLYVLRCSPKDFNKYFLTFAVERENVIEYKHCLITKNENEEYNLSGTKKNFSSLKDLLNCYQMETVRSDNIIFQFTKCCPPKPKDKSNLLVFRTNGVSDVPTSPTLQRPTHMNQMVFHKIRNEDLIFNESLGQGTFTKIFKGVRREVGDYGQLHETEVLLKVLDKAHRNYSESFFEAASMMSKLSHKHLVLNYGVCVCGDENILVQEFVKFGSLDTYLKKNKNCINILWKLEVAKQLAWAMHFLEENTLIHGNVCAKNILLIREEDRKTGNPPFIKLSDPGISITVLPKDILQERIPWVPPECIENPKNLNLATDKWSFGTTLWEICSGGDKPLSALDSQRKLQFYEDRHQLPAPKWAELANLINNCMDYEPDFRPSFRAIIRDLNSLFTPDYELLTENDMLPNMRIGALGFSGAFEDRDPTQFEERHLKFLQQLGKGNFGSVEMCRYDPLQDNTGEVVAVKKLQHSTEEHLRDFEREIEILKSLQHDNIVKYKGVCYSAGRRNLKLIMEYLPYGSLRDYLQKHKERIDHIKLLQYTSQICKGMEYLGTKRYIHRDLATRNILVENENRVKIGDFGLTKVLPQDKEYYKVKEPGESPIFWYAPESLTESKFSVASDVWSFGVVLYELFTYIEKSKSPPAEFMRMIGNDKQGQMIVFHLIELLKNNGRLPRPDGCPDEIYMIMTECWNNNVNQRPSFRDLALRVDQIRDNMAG

A549 = test: Antiproliferative activity against human A549 cells incubated for 72 hrs by MTT assay; type: functional, cell-based; conditions: A549, 72 h
[3] = target: CDK1/Cyclin A (Homo sapiens) (UniProt P06493+P20248); test: Inhibition of CDK1/Cyclin A2 (unknown origin) at 200 nM preincubated for 10 mins followed by substrate addition and measured after 60 mins in presence of ATP by ADP-Glo reagent based assay relative to control; type: protein-complex assay; conditions: time 70.0 min
[4] = target: CDK1/Cyclin E (Homo sapiens) (UniProt P06493+P24864); test: Inhibition of CDK1/Cyclin E1 (unknown origin) at 200 nM preincubated for 10 mins followed by substrate addition and measured after 60 mins in presence of ATP by ADP-Glo reagent based assay relative to control; type: protein-complex assay; conditions: time 70.0 min
[5] = target: CDK2/Cyclin A2 (Homo sapiens) (UniProt P24941+P20248); test: Inhibition of CDK2/Cyclin A2 (unknown origin) at 200 nM preincubated for 10 mins followed by substrate addition and measured after 60 mins in presence of ATP by ADP-Glo reagent based assay relative to control; type: protein-complex assay; conditions: time 70.0 min
[6] = target: Cyclin-dependent kinase 2/cyclin E1 (Homo sapiens) (UniProt P24864+P24941); test: Inhibition of CDK2/Cyclin E1 (unknown origin) at 200 nM preincubated for 10 mins followed by substrate addition and measured after 60 mins in presence of ATP by ADP-Glo reagent based assay relative to control; type: protein-complex assay; conditions: time 70.0 min
[7] = target: CDK3/Cyclin E (Homo sapiens) (UniProt P24864+Q00526); test: Inhibition of CDK3/Cyclin E1 (unknown origin) at 200 nM preincubated for 10 mins followed by substrate addition and measured after 60 mins in presence of ATP by ADP-Glo reagent based assay relative to control; type: protein-complex assay; conditions: time 70.0 min
[8] = target: Cyclin-dependent kinase 4/cyclin D1 (Homo sapiens) (UniProt P11802+P24385); test: Inhibition of CDK4/Cyclin D1 (unknown origin) at 200 nM preincubated for 10 mins followed by substrate addition and measured after 60 mins in presence of ATP by ADP-Glo reagent based assay relative to control; type: protein-complex assay; conditions: time 70.0 min
[9] = target: CDK9/cyclin T1 (Homo sapiens) (UniProt O60563+P50750); test: Inhibition of CDK9/cyclin T1 (unknown origin) at 200 nM preincubated for 10 mins followed by substrate addition and measured after 60 mins in presence of ATP by ADP-Glo reagent based assay relative to control; type: protein-complex assay; conditions: time 70.0 min
[10] = target: Cyclin-dependent kinase 13/Cyclin-K (Homo sapiens) (UniProt Q14004+O75909); test: Inhibition of CDK13/cyclin K (unknown origin) at 200 nM preincubated for 10 mins followed by substrate addition and measured after 60 mins in presence of ATP by ADP-Glo reagent based assay relative to control; type: protein-complex assay; conditions: time 70.0 min
Chain of Cyclin-dependent kinase 13/Cyclin-K (Homo sapiens) (O75909 whole entry, looked up): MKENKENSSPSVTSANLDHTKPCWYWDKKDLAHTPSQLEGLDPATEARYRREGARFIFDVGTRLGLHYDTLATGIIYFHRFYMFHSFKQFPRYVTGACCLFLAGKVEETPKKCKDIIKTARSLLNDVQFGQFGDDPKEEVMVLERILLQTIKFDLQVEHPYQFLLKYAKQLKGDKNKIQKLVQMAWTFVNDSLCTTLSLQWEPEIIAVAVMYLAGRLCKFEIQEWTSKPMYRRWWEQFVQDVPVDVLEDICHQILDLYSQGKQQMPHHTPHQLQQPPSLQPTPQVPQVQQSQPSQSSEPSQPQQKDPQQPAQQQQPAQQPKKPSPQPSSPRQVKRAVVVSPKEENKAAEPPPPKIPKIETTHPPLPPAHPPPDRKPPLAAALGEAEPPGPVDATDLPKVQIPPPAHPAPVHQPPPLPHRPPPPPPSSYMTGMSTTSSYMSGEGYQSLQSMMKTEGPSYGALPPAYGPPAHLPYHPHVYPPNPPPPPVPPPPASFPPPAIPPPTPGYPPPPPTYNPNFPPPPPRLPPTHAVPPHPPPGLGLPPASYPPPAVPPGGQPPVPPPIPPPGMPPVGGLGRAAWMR
Chain of Cyclin-dependent kinase 13/Cyclin-K (Homo sapiens) (Q14004 whole entry, looked up): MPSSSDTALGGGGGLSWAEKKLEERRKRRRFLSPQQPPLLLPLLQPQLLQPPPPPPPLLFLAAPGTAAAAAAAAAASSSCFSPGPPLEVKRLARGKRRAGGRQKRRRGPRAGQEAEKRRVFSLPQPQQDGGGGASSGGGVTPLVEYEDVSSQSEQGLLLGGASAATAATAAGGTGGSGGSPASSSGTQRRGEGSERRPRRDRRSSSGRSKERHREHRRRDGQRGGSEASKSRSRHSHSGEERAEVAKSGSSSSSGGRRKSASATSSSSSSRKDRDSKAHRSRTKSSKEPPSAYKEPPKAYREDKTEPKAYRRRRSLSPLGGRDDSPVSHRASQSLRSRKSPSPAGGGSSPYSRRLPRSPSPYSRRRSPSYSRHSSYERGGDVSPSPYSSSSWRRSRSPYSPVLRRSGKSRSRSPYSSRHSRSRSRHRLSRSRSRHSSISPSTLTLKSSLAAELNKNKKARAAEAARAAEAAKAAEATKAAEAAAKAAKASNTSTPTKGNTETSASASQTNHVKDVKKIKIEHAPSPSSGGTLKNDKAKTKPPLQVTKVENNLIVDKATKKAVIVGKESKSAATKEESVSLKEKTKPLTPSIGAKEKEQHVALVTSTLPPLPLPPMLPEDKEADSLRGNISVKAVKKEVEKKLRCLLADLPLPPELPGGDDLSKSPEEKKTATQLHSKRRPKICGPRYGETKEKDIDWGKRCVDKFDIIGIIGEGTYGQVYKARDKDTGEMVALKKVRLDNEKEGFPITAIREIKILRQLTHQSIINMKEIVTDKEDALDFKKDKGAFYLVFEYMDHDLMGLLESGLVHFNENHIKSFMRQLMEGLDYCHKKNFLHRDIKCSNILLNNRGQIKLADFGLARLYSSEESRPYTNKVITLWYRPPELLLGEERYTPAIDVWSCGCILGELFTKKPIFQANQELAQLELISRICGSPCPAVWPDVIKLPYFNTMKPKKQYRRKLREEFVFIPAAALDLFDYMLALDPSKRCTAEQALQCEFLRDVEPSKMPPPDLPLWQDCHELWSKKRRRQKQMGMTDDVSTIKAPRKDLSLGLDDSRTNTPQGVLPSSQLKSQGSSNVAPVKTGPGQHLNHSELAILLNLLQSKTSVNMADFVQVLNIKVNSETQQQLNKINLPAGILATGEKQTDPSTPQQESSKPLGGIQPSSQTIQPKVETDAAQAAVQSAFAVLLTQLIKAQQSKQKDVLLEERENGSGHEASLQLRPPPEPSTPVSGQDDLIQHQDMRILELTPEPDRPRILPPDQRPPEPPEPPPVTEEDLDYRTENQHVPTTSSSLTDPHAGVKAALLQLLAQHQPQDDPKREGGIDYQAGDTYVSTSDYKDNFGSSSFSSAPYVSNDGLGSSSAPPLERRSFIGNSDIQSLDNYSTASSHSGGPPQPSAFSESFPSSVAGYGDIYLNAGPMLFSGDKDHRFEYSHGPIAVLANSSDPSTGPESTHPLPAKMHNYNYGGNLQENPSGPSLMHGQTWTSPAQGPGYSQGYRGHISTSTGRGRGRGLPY

[11] = Antiproliferative activity against human Osimertinib-resistant NCI-H1975 cell incubated for 72 hrs by MTT assay; type: functional, cell-based; conditions: NCI-H1975, 72 h
[12] = Inhibition of colony formation in human Osimertinib-resistant NCI-H1975 cell assessed as inhibition of cell growth at 125 nM measured after 2 weeks by crystal violet staining based analysis relative to control; type: functional; conditions: NCI-H1975, 336 h
NCI-H1975 [13] = test: Downregulation of Mcl-1 level in human Osimertinib-resistant NCI-H1975 cell at 500 nM measured after 2 hrs by Western blotting analysis; type: functional, cell-based
NCI-H1975 [14] = test: Induction of apoptosis in human Osimertinib-resistant NCI-H1975 cell assessed as increase in percentage of apoptotic cells measured after 16 hrs by Annexin V-FITC and PI staining based analysis; type: functional; conditions: dose 125-2000 nM
NCI-H1975 [15] = test: Downregulation of cleaved PARP level in human Osimertinib-resistant NCI-H1975 cell at 125 nM measured after 16 hrs in presence of osimertinib by Western blot analysis; type: functional, cell-based
[16] = Induction of apoptosis in human Osimertinib-resistant NCI-H1975 cell assessed as early apoptotic cells at 125 nM measured after 16 hrs by Annexin V-FITC and PI staining based analysis (Rvb =1.78%); type: functional
[17] = Induction of apoptosis in human Osimertinib-resistant NCI-H1975 cell assessed as early apoptotic cells at 500 nM measured after 16 hrs by Annexin V-FITC and PI staining based analysis (reference value: 1.78%); type: functional
[18] = Induction of apoptosis in human Osimertinib-resistant NCI-H1975 cell assessed as early apoptotic cells at 2000 nM measured after 16 hrs by Annexin V-FITC and PI staining based analysis (reference value: 1.78%); type: functional
[19] = Induction of apoptosis in human Osimertinib-resistant NCI-H1975 cell assessed as late apoptotic cells at 500 nM measured after 16 hrs by Annexin V-FITC and PI staining based analysis (reference value: 2.84%); type: functional
[20] = Induction of apoptosis in human Osimertinib-resistant NCI-H1975 cell assessed as necrotic cells at 2000 nM measured after 16 hrs by Annexin V-FITC and PI staining based analysis (reference value: 0.50%); type: functional
[21] = Induction of apoptosis in human Osimertinib-resistant NCI-H1975 cell assessed as early apoptotic cells at 125 nM measured after 16 hrs in presence of osimertinib by Annexin V-FITC and PI staining based analysis (Rvb =1.78%); type: functional
[22] = Half life in Sprague-Dawley rat at 2 mg/kg, iv measured upto 24 hrs; type: ADME, organism-based; conditions: in vivo
[23] = Metabolic stability in human liver microsomes assessed as half life at 10 uM measured at 5 to 60 mins by LC-MS/MS analysis; type: ADME, Microsome; conditions: time 5-60 min
CYP3A4 = CYP3A4 (Homo sapiens, UniProt P08684); test: Inhibition of CYP3A4 in human liver microsomes using midazolam as substrate at 10 uM incubated for 5 mins in presence of NADPH by LC-MS/MS analysis relative to control; type: ADME, Microsome; conditions: probe midazolam
Chain of CYP3A4 (P08684 whole entry): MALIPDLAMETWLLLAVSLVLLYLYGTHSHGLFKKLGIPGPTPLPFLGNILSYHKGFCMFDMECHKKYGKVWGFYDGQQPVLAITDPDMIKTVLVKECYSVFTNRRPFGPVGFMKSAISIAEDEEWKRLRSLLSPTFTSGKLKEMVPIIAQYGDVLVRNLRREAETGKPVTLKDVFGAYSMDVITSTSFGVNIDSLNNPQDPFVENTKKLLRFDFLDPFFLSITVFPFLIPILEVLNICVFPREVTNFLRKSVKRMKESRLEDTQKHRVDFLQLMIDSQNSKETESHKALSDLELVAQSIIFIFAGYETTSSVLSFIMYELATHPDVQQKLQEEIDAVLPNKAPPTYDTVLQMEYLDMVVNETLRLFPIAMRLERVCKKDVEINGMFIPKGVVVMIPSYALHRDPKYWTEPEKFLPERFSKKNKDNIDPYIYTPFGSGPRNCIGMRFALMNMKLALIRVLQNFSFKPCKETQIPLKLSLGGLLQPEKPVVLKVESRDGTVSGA

[24] = Toxicity in ICR mouse assessed as effect on body weight loss at 1000 mg/kg, po measured for 8 to 9 days; type: organism-based; conditions: in vivo, time 8-9 day
[25] = Toxicity in ICR mouse assessed as morphological changes in lung at 1000 mg/kg, po measured after 9 days by H and E staining based analysis; type: organism-based; conditions: in vivo, 216 h, time 9 day
[26] = Antitumor activity against patient derived #0085 lung cancer organoid assessed as inhibition of growth measured after 4 days; type: functional, tissue-based; conditions: Homo sapiens, 96 h
cells = conditions: Homo sapiens, Osimertinib-resistant HCC827AR cell, 72 h

With O=C(NCCN1CCOCC1)c1ccc2cc1OCCCCCCOc1cc(ccc1F)-c1nc(ncc1F)N2 the inhibition [1] was 21.2%, the inhibition [2] was 23.3% and the IC50 (A549) was 0.409 µM. The inhibition [3] was 15.7%, the inhibition [4] was 16.4% and the inhibition [5] was 39.1%. For the same molecule, the inhibition [6] was 44.7%, the inhibition [7] was 29.6% and the inhibition [8] was 32.1%. For the same molecule, the inhibition [9] was 99.3%, the inhibition [10] was 46.7% and the IC50 [11] was 0.251 µM. For the same molecule, the inhibition at 0.125 µM [12] was 100%, the Activity (NCI-H1975 [13]) was “Active” and the Activity (NCI-H1975 [14]) was “Dose-Dependent Effect”. For the same molecule, the Activity (NCI-H1975 [15]) was “Active”, the Activity [16] was 4.7% and the Activity [17] was 14.4%. The Activity [18] was 18.9%, the Activity [19] was 7.02% and the Activity [20] was 1.97%. The Activity [21] was 3.15%, the half-life [22] was 108 min and the half-life at 10 µM [23] was 10.7 min. For the same molecule, the inhibition at 5 min, 10 µM (CYP3A4) was 27.5%, the Activity [24] was “Non-Toxic” and the Activity [25] was “Non-Toxic”. The IC50 [26] was 0.13 µM and the IC50 (cells) was 0.251 µM.
